The target of experiment [1] is MTAN (Escherichia coli, UniProt P0AF12). In words: Enzyme inhibition assay, MTAN (slow-onset inhibition constants). Conditions: for Ki: MTAN. Format: biochemical. As for the experimental part:
(§1) Ki as shown in Tables 1 and 2 is the initial inhibition constant formed by the enzyme-inhibitor complex, and Ki* is the equilibrium dissociation constant for inhibition that is observed following a period of slow-onset, tight binding inhibition. Ki* is the biologically effective constant.
(§2) Enzyme assays were conducted to assess the effectiveness of selected compounds of the invention as inhibitors of MTAP and MTAN.
(§3) Inhibitors.—Inhibitor concentrations were determined by the UV absorbance spectrum using the published millimolar extinction coefficients for 9-dazadenine of 8.5 at 275 nm at pH 7.0.
(§4) Assays.—The direct spectrophotometric assay for the conversion of MTA into adenine was measured as the decrease in absorbance at 274 nm. At 274 nm, Δε between MTA and adenine is at a maximum and produces a spectral change of 1.6 absorbance units/cm/mM (DeWolf, W. E. Jr., Fullin, F. A., and Schramm, V. L. (1979) J. Biol. Chem. 254, 10868–10875)
Slow-Onset Inhibition and Inhibition Constants.—The kinetics for slow onset inhibition and the Ki measurement was carried out by adding a known concentration of enzyme (1–5 nM) to a reaction mixture containing a substrate concentration of 200 μM. This concentration corresponds to an OD of 0.7–1.1 at […]. The formation of product was monitored as a decrease in absorbance at 274 nm. Conditions for Ki* determination used high concentrations of substrate. Two controls, one having no inhibitor and the other no enzyme were included in the experiment. The Ki values MTAP for the various compounds were calculated by fitting in the ratio of initial rates in the presence of inhibitor to without any inhibitor versus the inhibitor concentration, for the known Km and substrate concentration into the following expression.
(§5) Where Vo′ is the rate in the presence of inhibitor • Vo rate in the absence of inhibitor • [I] inhibitor concentration • And [S] is the substrate concentration
(§6) And the Ki* was calculated by fitting to the following expression
(§7) Where Vs′ is the steady-state rate following attainment of equilibrium in the presence inhibitor, and Vs is the steady-state rate in the control having no inhibitor. Both these equations are valid for competitive type inhibition.

Experiment [2] deals with T1, human MTAP (Homo sapiens, UniProt Q13126).
T1 construct: inferred from pQE32 vector and Ni-NTA purification) (N); made in house; host or cells: E. coli
T1 sequence (Q13126 1-283): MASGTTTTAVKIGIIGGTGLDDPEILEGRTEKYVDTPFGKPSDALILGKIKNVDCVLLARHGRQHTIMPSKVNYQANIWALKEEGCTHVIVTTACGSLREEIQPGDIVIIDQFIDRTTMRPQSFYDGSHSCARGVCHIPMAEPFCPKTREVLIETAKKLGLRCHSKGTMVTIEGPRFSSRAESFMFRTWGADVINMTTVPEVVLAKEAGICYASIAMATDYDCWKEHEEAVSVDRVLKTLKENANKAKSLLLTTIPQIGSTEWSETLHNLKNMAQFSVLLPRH
In words: Enzyme inhibition assay, MTAP (slow-onset inhibition constants). Format: biochemical. Conditions: for Ki: MTAP. As for the experimental part:
as §1, §2
Enzymes.—The human MTAP protein was cloned into pQE32 expression vector and transformed into E. coli. Induction cultures containing 1 L (25 mg/L) and 50 μg/mL ampicillin were inoculated with 1 mL overnight grown starter-culture and incubated at 37° C. When the cultures reached an OD of ≈0.6 they were induced with 1.5 mM IPTG for 6 to 8 hours. Cells were harvested by centrifugation at 5000 rpm for 30 min, and subsequently resuspended in a buffer (20 mM imidazole, 300 mM NaCl, 0.2 mM phenylmethylsulfonyl fluoride (PMSF), 100 mM Tris, pH 8.0) containing a small amount of lysozyme to weaken the cell membrane. Cells were lysed with a French press. The insoluble material was removed by high-speed centrifugation. The cell extract was further clarified with 35% ammonium sulfate precipitation followed by high-speed centrifugation. The clarified cell extract was then applied to a 5 mL Ni-NTA column that had previously been equilibrated with the binding buffer. Further chromatographic steps were carried out by FPLC. The column was washed with 10 volumes of 50 mM imidazole, 300 mM NaCl, and 100 mM Tris, pH 8.0, and the protein was eluted with a buffer containing a 50–250 mM gradient of imidazole, 300 mM NaCl, 1 M Tris, pH 8.0. The purity of the protein was verified by running polyacrylamide gel followed by Coomassie staining. The protein was subsequently dialyzed in 50 mM NaCl, 2 mM dithiothreitol (DTT) and 50 mM Tris, pH 7.4, and was concentrated to 10 mg/mL. The purified protein was stored at −80° C. in 100 μL to 150 μL aliquots.
as §3, §4
This concentration corresponds to an OD of 0.7–1.1 at 274 nM. The formation of product was monitored as a decrease in absorbance at 274 nm. Conditions for Ki* determination used high concentrations of substrate. Two controls, one having no inhibitor and the other no enzyme were included in the experiment. The Ki values MTAP for the various compounds were calculated by fitting in the ratio of initial rates in the presence of inhibitor to without any inhibitor versus the inhibitor concentration, for the known Km and substrate concentration into the following expression.
as §5, §6, §7

The mark [3] stands for this setting: equilibrium dissociation constant after slow-onset, tight binding inhibition, read-out: Ki*.
Where [4] appears, read: initial inhibition constant, read-out: Ki.
[5] abbreviates: Ki*, equilibrium dissociation constant after slow-onset, tight binding inhibition.
Setting [6] is: Ki, initial inhibition constant.

Where a name gives a salt, the structure may show the parent alone. Read-outs that look alike come from different tables or passages of the source.

Experimental findings from patent US7098334B2 (Industrial Research Limited, priority 2002, dated 2006) are described below.

MTAN, sequence (P0AF12 whole entry): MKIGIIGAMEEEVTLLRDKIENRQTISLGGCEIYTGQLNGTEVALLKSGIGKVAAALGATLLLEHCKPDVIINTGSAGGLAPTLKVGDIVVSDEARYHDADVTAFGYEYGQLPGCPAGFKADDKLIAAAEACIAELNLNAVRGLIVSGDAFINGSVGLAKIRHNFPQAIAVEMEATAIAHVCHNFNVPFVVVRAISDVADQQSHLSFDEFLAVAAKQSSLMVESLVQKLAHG

For `Nc1ncnc2c([C@@H]3N[C@H](CSc4ccccc4)[C@H](O)C3O)c[nH]c12` (stereo partly shown), the Ki – broadly, a measure of affinity in units of concentration, obtained from inhibition or displacement – in experiment [1] (setting [3]) came out at 0.032 ± 0.002 nM; in experiment [1] (setting [4]), 0.046 ± 0.003 nM; in experiment [2] (setting [3]), 0.082 ± 0.009 nM; in experiment [2] (setting [4]), 0.89 ± 0.12 nM.

Take `Nc1ncnc2c([C@@H]3N[C@H](CSc4cccc(Cl)c4)[C@H](O)C3O)c[nH]c12` (stereo partly drawn) [5′-(m-Chloro-Phenyl-thio)-ImmA, (1S)-1-(9-Deazaadenin-9-yl)-5-(3-chlorophenyl)thio-1,4-dideoxy-1,4-imino-D-ribitol]: the Ki was 0.02 ± 0.002 nM in experiment [1] (setting [5]), 0.044 ± 0.004 nM in experiment [1] (setting [6]) and 4 ± 0.4 nM in experiment [2] (setting [4]).

For the compound `Cc1cccc(SC[C@H]2N[C@@H](c3c[nH]c4c(N)ncnc34)C(O)[C@H]2O)c1` (stereo partly shown) [5′-(m-tolylthio)-ImmA], the Ki in experiment [1] (setting [5]) stood at 0.009 ± 0.001 nM; in experiment [1] (setting [6]), 0.015 ± 0.0006 nM; in experiment [2] (setting [3]), 0.146 ± 0.048 nM; in experiment [2] (setting [4]), 0.602 ± 0.032 nM.

As to `Nc1ncnc2c([C@@H]3N[C@H](CSc4ccc(Cl)cc4)[C@H](O)C3O)c[nH]c12` (stereo partly drawn) [5′-(p-Chloro-Phenyl-thio)-ImmA, (1S)-1-(9-Deazaadenin-9-yl)-5-(4-chlorophenyl)thio-1,4-dideoxy-1,4-imino-D-ribitol], the Ki in experiment [1] (setting [5]) worked out at 0.006 nM; in experiment [1] (setting [6]), 0.006 ± 0.0003 nM; in experiment [2] (setting [3]), 0.09 ± 0.02 nM; in experiment [2] (setting [4]), 0.334 ± 0.036 nM.

Regarding `Nc1ncnc2c([C@@H]3N[C@H](CSc4ccc(F)cc4)[C@H](O)C3O)c[nH]c12` (stereo partly shown) [5′-(p-Fluoro-phenyl-thio)-ImmA], the Ki in experiment [1] (setting [5]) is 0.02 ± 0.004 nM; in experiment [1] (setting [6]), 0.082 ± 0.007 nM; in experiment [2] (setting [4]), 3 ± 0.2 nM.

Consider `Cc1ccc(SC[C@H]2N[C@@H](c3c[nH]c4c(N)ncnc34)C(O)[C@H]2O)cc1` (stereo partly shown) [5′-(p-tolylthio)-ImmA], for which the inhibition constant Ki in experiment [1] (setting [5]) turned out to be 0.008 ± 0.001 nM; in experiment [1] (setting [6]), 0.018 ± 0.001 nM; in experiment [2] (setting [3]) it was 0.252 ± 0.023 nM; in experiment [2] (setting [4]), 1.6 ± 0.2 nM.

Regarding `Nc1ncnc2c([C@@H]3N[C@H](CSCc4ccccc4)[C@H](O)C3O)c[nH]c12` (stereo partly drawn) [5′-Benzylthio-ImmA, (1S)-1-(9-Deazaadenin-9-yl)-5-benzylthio-1,4-dideoxy-1,4-imino-D-ribitol], the results for the Ki in experiment [1] (setting [5]), in experiment [1] (setting [6]) and in experiment [2] (setting [4]) were 0.012 ± 0.001 nM, 0.038 ± 0.003 nM and 12 ± 1 nM, respectively.

Consider `CCSC[C@H]1N[C@@H](c2c[nH]c3c(N)ncnc23)C(O)[C@H]1O` (stereo partly shown) [5′-Ethylthio-ImmA], for which the Ki in experiment [1] (setting [5]) came to 0.027 ± 0.0003 nM; in experiment [1] (setting [6]), 0.073 ± 0.011 nM; in experiment [2] (setting [3]), 0.26 ± 0.015 nM; in experiment [2] (setting [4]) it was 18 ± 2 nM.

`Nc1ncnc2c([C@@H]3N[C@H](CSCCF)[C@H](O)C3O)c[nH]c12` (stereo partly shown) [5′-Fluoroethylthio-ImmA]: the Ki in experiment [1] (setting [5]) stood at 0.03 ± 0.003 nM; in experiment [1] (setting [6]) it was 0.103 ± 0.011 nM; in experiment [2] (setting [3]), 1.5 ± 0.17 nM; in experiment [2] (setting [4]) it was 7 ± 0.5 nM.

Regarding `Nc1ncnc2c([C@@H]3N[C@H](CSCCO)[C@H](O)C3O)c[nH]c12` (stereo partly shown) [5′-Hydroxyethylthio-ImmA], the inhibition constant Ki in experiment [1] (setting [6]) came out at 0.407 ± 0.016 nM; in experiment [2] (setting [4]), 22 ± 2 nM.

In the case of `COC[C@H]1N[C@@H](c2c[nH]c3c(N)ncnc23)[C@H](O)[C@@H]1O` [5′-Methoxy-ImmA, (1S)-1-(9-deazaadenin-9-yl)-1,4-dideoxy-1,4-imino-5-O-methyl-D-ribitol hydrochloride], the Ki in experiment [1] (setting [6]) was 10 ± 1 nM; in experiment [2] (setting [4]), 70 ± 5 nM.

`Nc1ncnc2c([C@@H]3N[C@H](CSc4cccc5ccccc45)[C@H](O)C3O)c[nH]c12` (stereo partly shown) [5′-Napthylthio-ImmA]: the Ki in experiment [1] (setting [6]) turned out to be 0.75 ± 0.033 nM; in experiment [2] (setting [4]), 52 ± 5 nM.

Take `CCC[C@H]1N[C@@H](c2c[nH]c3c(N)ncnc23)[C@H](O)[C@@H]1O` [5′-deoxy-5′-ethyl-ImmA, (1S)-1-(9-Deazaadenin-9-yl)-1,4,5-trideoxy-5-ethyl-1,4-imino-D-ribitol]: the inhibitory constant (Ki) turned out to be 0.038 ± 0.005 nM in experiment [1] (setting [3]) and 0.121 ± 0.005 nM in experiment [1] (setting [4]).

Take `C[C@H]1N[C@@H](c2c[nH]c3c(N)ncnc23)[C@H](O)[C@@H]1O` [5′-deoxy-ImmA, (1S)-1-(9-deazaadenin-9-yl)-1,4,5-trideoxy-1,4-imino-D-ribitol hydrochloride]: the Ki in experiment [1] (setting [6]) turned out to be 13 ± 1 nM; in experiment [2] (setting [4]), 220 ± 14 nM.

Take `CSC[C@H]1N[C@@H](c2n[nH]c3c(N)ncnc23)C(O)[C@H]1O` (stereo partly drawn) [5′-methylthio-8-aza-ImmA, (1S)-1-(7-Amino-1H-pyrazolo[4,3-d]pyrimidin-3-yl)-1,4-dideoxy-1,4-imino-5-methylthio-D-ribitol]: the Ki in experiment [1] (setting [5]) was determined as 0.026 ± 0.0003 nM; in experiment [1] (setting [6]), 0.055 ± 0.003 nM; in experiment [2] (setting [3]) it was 0.76 ± 0.14 nM; in experiment [2] (setting [4]), 7 ± 1 nM.

On to `Nc1ncnc2c([C@@H]3N[C@H](CO)C(O)C3O)c[nH]c12` (stereo partly shown) [Immucillin A, reference compound], for which the “inhibition of MTAP (in words)” value in experiment [2] is given as “no inhibition”.

Take `CSC[C@H]1N[C@@H](c2c[nH]c3c(=O)[nH]cnc23)C(O)C1O` (stereo partly shown) [methylthio-ImmH, reference compound]: in experiment [1], the “inhibition of MTAN (in words)” value is given as “no inhibition”.
